# Data published in paper PMC467089, “Click estradiol dimers with novel aromatic bridging units: synthesis and anticancer evaluation” (Journal of Enzyme Inhibition and Medicinal Chemistry, 2024).
# Experiments:
# [1] = MTS cytotoxicity assay, BJ; format: cell-based; settings: human, BJ cells (non-tumour skin fibroblasts); MTS assay, 72-h incubation, mean ± SD of 3 independent experiments; read-out: IC50 cytotoxic activity BJ
# Summary of the method: (§1)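 Culture medium carried 10% foetal calf serum plus antibiotics. Treatment lasted 72 h with a fourfold dilution series, followed by MTS detection, in technical duplicate across three biological replicates.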
# CCRF-CEM lymphoblasts [2] = test: BrU incorporation analysis (RNA synthesis); format: cell-based, human; settings: for RNA synthesis, BrU incorporation (in words): 1× and 5×IC50, 24 h, gated remaining live cells
# Summary of the method: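 CCRF-CEM cells were treated with compounds for 24 h, then pulsed with 1 mM BrU for 30 min and fixed in 1% paraformaldehyde/0.05% NP-40. BrU was detected with a cross-reacting anti-BrdU antibody and FITC secondary, with propidium iodide/RNase counterstain; value is percentage of BrU-positive cells by flow cytometry.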
# [3] = system: HCT116p53−/− (p53 gene null variant of HCT116); test: MTS cytotoxicity assay, HCT116p53−/−; format: cell-based; settings: Homo sapiens, HCT-116; MTS assay, 72-h incubation, mean ± SD of 3 independent experiments; read-out: IC50 cytotoxic activity HCT116p53-
# Summary of the method: (§2)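 Viability is measured by MTS after cells, seeded overnight, receive fourfold-diluted compounds for 72 h at 37 °C.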
# CCRF-CEM lymphoblasts [4] = test: BrDU incorporation analysis (DNA synthesis); format: cell-based, human
# Summary of the method: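 Percentage of BrDU-incorporating cells was measured by flow cytometry after anti-BrdU/FITC and propidium iodide staining. Before that, CCRF-CEM lymphoblasts treated 24 h with compound received a 30-min 10 μM BrDU pulse, then ethanol fixation and 2 M HCl denaturation.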
# [5] = system: CEM-DNR (daunorubicin resistant variant of CCRF-CEM); test: MTS cytotoxicity assay, CEM-DNR; format: cell-based, human; settings: Homo sapiens, CEM-DNR; MTS assay, 72-h incubation, mean ± SD of 3 independent experiments; read-out: IC50 cytotoxic activity CEM-DNR
# Summary of the method: as §1
# CCRF-CEM lymphoblasts [6] = test: Phospho-histone H3 (Ser10) mitotic marker, flow cytometry; format: cell-based, human
# Summary of the method: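 Mitotic fraction scored by flow cytometry (488 nm) using Ser10-phosphorylated histone H3 antibody plus propidium iodide DNA stain, following RNase. CCRF-CEM lymphoblasts had 24 h compound exposure before ethanol fixation and Triton X-100 permeabilisation; events below G1 DNA content classed as fragmented-DNA, non-viable cells.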
# [7] = system: K562-TAX (paclitaxel-resistant variant of K562); test: MTS cytotoxicity assay, K562-TAX; format: cell-based, human; settings: Homo sapiens, K562-Tax; MTS assay, 72-h incubation, mean ± SD of 3 independent experiments; read-out: IC50 cytotoxic activity K562-TAX
# Summary of the method: as §1
# U2OS (osteosarcoma) = test: MTS cytotoxicity assay, U2OS; format: cell-based, human; settings: MTS assay, 72-h incubation, mean ± SD of 3 independent experiments; for IC50: Homo sapiens, U2OS, read-out: IC50 cytotoxic activity U2OS
# Summary of the method: as §1
# [8] = system: A549 (lung adenocarcinoma); test: MTS cytotoxicity assay, A549; format: cell-based, human; settings: MTS assay, 72-h incubation, mean ± SD of 3 independent experiments; for IC50: Homo sapiens, A549, read-out: IC50 cytotoxic activity A549
# Summary of the method: as §1
# [9] = system: K562 (chronic myelogenous leukaemia); test: MTS cytotoxicity assay, K562; format: cell-based; settings: Homo sapiens, K562; MTS assay, 72-h incubation, mean ± SD of 3 independent experiments; read-out: IC50 cytotoxic activity K562
# Summary of the method: as §2
Compound,IC50 at 72 h [1],"RNA synthesis, BrU incorporation (in words) (CCRF-CEM lymphoblasts [2])","BrU, % of positive cells (CCRF-CEM lymphoblasts [2]; 1×IC50, 24 h)","BrU, % of positive cells (CCRF-CEM lymphoblasts [2]; 5×IC50, 24 h)",IC50 [3],"BrDU, % of positive cells (CCRF-CEM lymphoblasts [4]; 1×IC50, 24 h)","BrDU, % of positive cells (CCRF-CEM lymphoblasts [4]; 5×IC50, 24 h)",IC50 [5],"mitosis-specific phosphorylation of histone H3 (in words) (CCRF-CEM lymphoblasts [6]; 1× and 5×IC50, 24 h)","pH3Ser10, % of positive cells (CCRF-CEM lymphoblasts [6]; 1×IC50, 24 h)","pH3Ser10, % of positive cells (CCRF-CEM lymphoblasts [6]; 5×IC50, 24 h)",IC50 [7],IC50 (U2OS (osteosarcoma)),IC50 [8],IC50 [9],IC50 cytotoxic activity U2OS (U2OS (osteosarcoma)),IC50 cytotoxic activity A549 [8]
"COc1cc(Cn2cc([C@]3(O)CC[C@H]4[C@@H]5CCc6cc(O)ccc6[C@H]5CC[C@@]43C)nn2)cc(Cn2cc([C@]3(O)CC[C@H]4[C@@H]5CCc6cc(O)ccc6[C@H]5CC[C@@]43C)nn2)c1 [ED3, (17β,17′β)-17,17′-[(5-Methoxybenzene-1,3-diyl)bis(methanediyl-1H-1,2,3-triazole-1,4-diyl)]bisestra-1,3,5(10)-triene-3,17-diol]",> 50000 nM,high rate of RNA synthesis,68.66%,60.00%,450 ± 39 nM,7.81%,3.23%,> 50000 nM,did not induce an increase of mitosis-specific phosphorylation of histone H3,1.43%,0.77%,> 50000 nM,610 ± 33 nM,600 ± 47 nM,330 ± 74 nM,,
"C[C@]12CC[C@@H]3c4ccc(O)cc4CC[C@H]3[C@@H]1CC[C@@]2(O)c1cn(Cc2cc(Cn3cc([C@]4(O)CC[C@H]5[C@@H]6CCc7cc(O)ccc7[C@H]6CC[C@@]54C)nn3)cc(OCCO)c2)nn1 [ED5, (17β,17′β)-17,17′-{[5-(2-Hydroxyethoxy)benzene-1,3-diyl]bis(methanediyl-1H-1,2,3-triazole-1,4-diyl)}bisestra-1,3,5(10)-triene-3,17-diol]",> 50000 nM,high rate of RNA synthesis,65.14%,66.40%,1980 ± 170 nM,32.15%,9.59%,> 50000 nM,,6.27%,0.34%,> 50000 nM,> 50000 nM,> 50000 nM,420 ± 44 nM,did not exhibit activity,did not exhibit activity
"C[C@]12CC[C@@H]3c4ccc(O)cc4CC[C@H]3[C@@H]1CC[C@@]2(O)c1cn(Cc2cccc(Cn3cc([C@]4(O)CC[C@H]5[C@@H]6CCc7cc(O)ccc7[C@H]6CC[C@@]54C)nn3)n2)nn1 [ED, reference compound]",> 50000 nM,,34.33%,15.43%,900 ± 320 nM,19.54%,15.94%,> 50000 nM,,8.08%,48.71%,> 50000 nM,6230 ± 700 nM,> 50000 nM,580 ± 230 nM,,
